Experiments:
Test in all cases: fitness (endpoint OD595 vs no drug) (fraction); higher = more growth
S. aureus Newman = conditions: one replicate, main component drawn
Summary of the method: (§1)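 Fitness compares growth at the stationary-phase transition with the robust mean of no-drug control wells, as a ratio of optical densities. The ratio is capped at 1. Wells of 384-well plates held 30 µl, or 55 µl for S. pneumoniae, inoculated at OD595 0.01. Readings at OD595 every 30 min for 14 h at 37 °C were corrected against the first reading.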

S. pneumoniae D39V = tested on: S. pneumoniae D39V
Summary of the method: as §1

B. subtilis 168 = tested on: B. subtilis 168
Summary of the method: as §1
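Also: OD595 on entry to stationary phase over no-drug wells; at most 1.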

O=C(O)[C@H]1/C(=C/CO)O[C@@H]2CC(=O)N21 [Clavulanic acid] + CCCCCCCCCC(=O)N[C@@H]1[C@H]([C@@H]([C@H](O[C@H]1OC2=C3C=C4C=C2OC5=C(C=C(C=C5)[C@H]([C@H]6C(=O)N[C@@H](C7=C(C(=CC(=C7)O)OC8[C@H]([C@H]([C@@H]([C@H](O8)CO)O)O)O)C9=C(C=CC(=C9)[C@H](C(=O)N6)NC(=O)[C@@H]4NC(=O)[C@@H]1C2=CC(=CC(=C2)OC2=C(C=CC(=C2)[C@H](C(=O)N[C@H](CC2=CC(=C(O3)C=C2)Cl)C(=O)N1)N)O)O)O)C(=O)O)O[C@H]1[C@@H]([C@H]([C@@H]([C@H](O1)CO)O)O)NC(=O)C)Cl)CO)O)O [Teicoplanin]
fitness, S. aureus Newman
Conditions	first compound 0.03125 µg/mL	first compound 0.0625 µg/mL	first compound 0.125 µg/mL
partner 0.1562 µg/mL	0.992	0.966	0.916
partner 0.3125 µg/mL	0.924	≥ 1	0.894
partner 0.625 µg/mL	≥ 1	≥ 1	0.967

O=C(O)[C@H]1/C(=C/CO)O[C@@H]2CC(=O)N21 [Clavulanic acid] + CCC[C@@H]1C[C@@H](C(=O)N[C@@H]([C@H]2O[C@H](SC)[C@H](O)[C@@H](O)[C@H]2O)[C@@H](C)O)N(C)C1 [Lincomycin]
fitness
Conditions	partner 0.1 µg/mL	partner 0.2 µg/mL	partner 0.215 µg/mL	partner 0.4 µg/mL	partner 0.43 µg/mL	partner 0.8 µg/mL	partner 0.86 µg/mL
B. subtilis 168, first compound 1.5 µg/mL	0.91	0.868	–	0.892	–	–	–
B. subtilis 168, first compound 3 µg/mL	0.835	0.837	–	0.838	–	–	–
B. subtilis 168, first compound 6 µg/mL	0.822	0.686	–	0.704	–	–	–
S. pneumoniae D39V, first compound 0.5 µg/mL	–	0.571	0.828	0.326	0.726	0.0312	0.39
S. pneumoniae D39V, first compound 1 µg/mL	–	0.591	0.809	0.354	0.687	0.186	0.332
S. pneumoniae D39V, first compound 2 µg/mL	–	0.406	0.726	0.258	0.606	0.045	0.21

fitness, B. subtilis 168, one replicate
Conditions	first compound 1.5 µg/mL	first compound 3 µg/mL	first compound 6 µg/mL
partner 0.8 µg/mL	0.832	0.761	0.729
partner 1.6 µg/mL	0.913	0.802	0.708

O=C(O)[C@H]1/C(=C/CO)O[C@@H]2CC(=O)N21 [Clavulanic acid] + CC[C@H]1OC(=O)[C@H](C)[C@@H](O[C@H]2C[C@@](C)(OC)[C@@H](O)[C@H](C)O2)[C@H](C)[C@@H](O[C@@H]2O[C@H](C)C[C@H](N(C)C)[C@H]2O)[C@](C)(OC)C[C@@H](C)C(=O)[C@H](C)[C@@H](O)[C@]1(C)O [Clarithromycin]
fitness, S. pneumoniae D39V, one replicate
Conditions	first compound 0.5 µg/mL	first compound 1 µg/mL	first compound 2 µg/mL
partner 0.007812 µg/mL	0.855	0.828	0.801
partner 0.01562 µg/mL	0.829	0.792	0.769
partner 0.03125 µg/mL	0.597	0.574	0.509

fitness, S. pneumoniae D39V
Conditions	partner 0.0625 µg/mL	partner 0.07 µg/mL	partner 0.125 µg/mL	partner 0.14 µg/mL	partner 0.25 µg/mL	partner 0.28 µg/mL
first compound 0.5 µg/mL	0.486	0.103	0.232	0.0628	0.0756	0.0401
first compound 1 µg/mL	0.541	0.088	0.361	0.0781	0.209	0.0556
first compound 2 µg/mL	0.325	0.0584	0.191	0.062	0.0711	0.0369

O=C(O)[C@H]1/C(=C/CO)O[C@@H]2CC(=O)N21 [Clavulanic acid] + CN(C)C(=O)C(CCN1CCC(O)(c2ccc(Cl)cc2)CC1)(c1ccccc1)c1ccccc1 [Loperamide]
fitness
Conditions	first compound 0.5 µg/mL	first compound 1 µg/mL	first compound 1.5 µg/mL	first compound 2 µg/mL	first compound 3 µg/mL	first compound 6 µg/mL
B. subtilis 168, partner 25 µg/mL	–	–	0.848	–	0.742	0.614
S. pneumoniae D39V, partner 17.14 µg/mL	0.954	0.95	–	0.836	–	–
S. pneumoniae D39V, partner 20 µg/mL	≥ 1	≥ 1	–	0.89	–	–
S. pneumoniae D39V, partner 34.28 µg/mL	0.931	0.913	–	0.75	–	–
S. pneumoniae D39V, partner 40 µg/mL	≥ 1	≥ 1	–	0.926	–	–
S. pneumoniae D39V, partner 80 µg/mL	0.0391	0.185	–	0.0465	–	–

S. pneumoniae D39V, partner 68.57 µg/mL, one replicate
Conditions	fitness
first compound 0.5 µg/mL	0.952
first compound 1 µg/mL	0.944
first compound 2 µg/mL	0.849

O=C(O)[C@H]1/C(=C/CO)O[C@@H]2CC(=O)N21 [Clavulanic acid] + CN(C)[C@@H]1C(O)=C(C(N)=O)C(=O)[C@@]2(O)C(O)=C3C(=O)c4c(O)ccc(Cl)c4[C@@](C)(O)[C@H]3C[C@@H]12 [Chlortetracycline]
fitness
Conditions	partner 0.012 µg/mL	partner 0.024 µg/mL	partner 0.0475 µg/mL	partner 0.048 µg/mL	partner 0.095 µg/mL	partner 0.19 µg/mL	partner 0.375 µg/mL	partner 0.75 µg/mL	partner 1.5 µg/mL
B. subtilis 168, first compound 1.5 µg/mL	–	–	0.873	–	0.754	0.58	–	–	–
B. subtilis 168, first compound 3 µg/mL	–	–	0.838	–	0.708	0.512	–	–	–
B. subtilis 168, first compound 6 µg/mL	–	–	0.745	–	0.582	0.422	–	–	–
S. pneumoniae D39V, first compound 0.5 µg/mL	0.906	0.699	–	0.306	–	–	0.0436	0.0585	0.0458
S. pneumoniae D39V, first compound 1 µg/mL	0.821	0.686	–	0.366	–	–	0.0323	0.0545	0.0428
S. pneumoniae D39V, first compound 2 µg/mL	0.618	0.462	–	0.246	–	–	0.0402	0.0396	0.0545

Reference: the supplement of paper PMC10627819
